Measured values taken from patent US8906953B2, “Pyrrolidine substitute flavones for the treatment of inflammatory disorders” (Piramal Enterprises Limited, priority 2010, dated 2014).

Key:
[1] = test system: IL-1β; experiment: LPS-induced IL-1β release from hPBMCs (ELISA); format: cell-based; settings: Homo sapiens
Experimental: (§1) Cytokine production by lipopolysaccharides (LPS) in hPBMCs (human peripheral blood mononuclear cells) was measured as in reference, Physiol. Res. 2003, 52, 593-598, the disclosure of which is incorporated by reference for the teaching of the assay. Blood was collected from healthy donors into Potassium EDTA vacutainer tubes (BID vacutainer). The PBMC were isolated using gradient centrifugation in Histopaque-1077 solution (Sigma). Isolated PBMC were suspended in RPMI 1640 (Rosewell Park Memorial Institute) culture medium (Sigma-Aldrich Fine Chemicals, USA) containing 10% fetal bovine serum (FBS) (JRH, USA), 100 U/mL penicillin (Sigma Chemical Co. St Louis, Mo., USA) and 100 μg/mL streptomycin (Sigma Chemical Co. St Louis, Mo.). The cell concentration was adjusted to 1×10^6 cells/mL. The viability as determined by trypan blue dye exclusion was uniform Ly≧98%. The cell suspension (100 μL) was added to the wells of a 96-well culture plate. Following cell plating, 79 μL of the culture medium and 1 μL of various concentrations of test compounds (compounds of formula 1) (final concentration 0.001, 0.003, 0.005, 0.01, 0.025, 0.03, 0.05, 0.1, 0.25, 0.3 and 1 μM) dissolved in DMSO (dimethyl sulfoxide, Sigma, Mo., USA) were added to the cells. The final concentration of DMSO was adjusted to 0.5%. The vehicle (0.5% DMSO) was used as control. […]

[2] = test system: IL-6; experiment: LPS-induced IL-6 release from hPBMCs (ELISA); format: cell-based; settings: Homo sapiens
Experimental: as §1

[3] = test system: VCAM-1; experiment: TNF-α induced cell surface expression of VCAM-1 on HUVECs; format: cell-based; settings: Homo sapiens, HUVEC; TNF-α (1 ng/mL) stimulated HUVECs, 6 hours, n=2
Experimental: The assay was designed as in reference, Transplantation, 1997, 63(5), 759-764, the disclosure of which is incorporated herein by reference for the teaching of the assay.
Human umbilical vein endothelial cells (HUVECs) were obtained from Cascade Biologics (Oregon-USA). Cells were cultured in M-200 medium (Cascade Biologics) supplemented with low serum growth supplements (LSGS) (Cascade Biologics), penicillin-G (100 U/mL), streptomycin (100 μg/mL) and amphotericin B (50 ng/mL) (GIBCO). […] After TNF-α stimulation (1 ng/mL) (R&D Systems (Minneapolis, Minn.)) for 4 hours at 37° C. in an atmosphere of 5% CO2, supernatants were harvested and assayed for the expression of ICAM-1 (intercellular cell adhesion molecules), whereas the expressions of VCAM-1 (vascular cell adhesion molecules) and E-selectin were evaluated after 6 hours of stimulation. […] To quantitatively measure the amount of cell surface expressions of ICAM-1, VCAM-1 and E-selectin, ELISA assay was performed using anti-ICAM-1 (clone BBIG-I1), anti-VCAM-1 (clone BBIG-V1), anti-E-selectin (clone BBIG-E4) antibodies, isotype control mouse IgG1 (clone 11711.11) and the secondary antibody (anti-mouse IgG-HRP antibody) which were procured from R&D Systems (Minneapolis, Minn., USA). […]

[4] = test system: PDE4; experiment: PDE4 inhibition, cAMP fluorescence assay in salbutamol-stimulated U937 cells; format: cell-based, human; settings: for Relative Fluorescence (RF): U937 cells, salbutamol 1 μM
Experimental: Culture medium was changed every 2-3 days and always 24 hours before harvest. RPMI medium, FBS and Salbutamol were purchased from Sigma-Aldrich (USA). Rolipram was synthesized in the Medicinal Chemistry Department, Piramal Life Sciences Limited.
Rolipram was used as a standard (0.3, 1 and 3 μM). […] Fluorescence measurements were taken with Polarstar Optima (BMG Labtech-Germany).
Relative fluorescence was calculated using the following formula where: RF=Relative Fluorescence, Fo=fluorescent intensity of the blank or buffer control, F=fluorescence of cAMP or sample: RF=(Fo−F)/Fo
A standard curve was plotted using the RF values of the given standards and the values of cAMP corresponding to the test compounds were determined using the standard plot.

Work on CN1CC[C@@H](c2c(O)cc(O)c3c(=O)cc(-c4ccc(C(F)(F)F)cc4Cl)oc23)[C@@H]1CO.Cl [Compound of example 3, (+)-trans-2-(2-Chloro-4-trifluoromethyl-phenyl)-5,7-dihydroxy-8-(2-hydroxymethyl-1-methyl-pyrrolidin-3-yl)-chromen-4-one hydrochloride] yielded an IC50 [1] of 100 nM, an IC50 [2] of 100 nM and an IC50 [3] of 280 nM. The “PDE4 inhibition (conclusion)” value ([4]; U937 cells, 1, 3 and 10 μM) was “not a PDE4 inhibitor”, the “Relative Fluorescence (RF)” value ([4]; concentration 1 μM) was 0.71 and the “Relative Fluorescence (RF)” value ([4]; concentration 3 μM) was 0.95. The “Relative Fluorescence (RF)” value ([4]; concentration 10 μM) was 0.95.
